Experimental data reported in patent publication US9352010B2, “Treatment of HIV-1 infection and AIDS” (The J. David Gladstone Institutes, priority 2011, dated 2016).

Assays:
[1] = test system: lactate dehydrogenase (LDH) release; test: LDH release from HIV-1-infected HLACs (pyroptosis); assay type: cell-based, human; conditions: caspase inhibitors 50 μM or 100 μM, 3 days, FIG. 16C
Procedure: Caspase-1 activation can lead to a highly inflammatory form of cell death called pyroptosis. To gain insight into how CD4 T cells die, it was determined whether HIV infection in CD4 T cells induce pyroptosis cell death, as measured by lactate dehydrogenase (LDH) release. HLACs were left uninfected or infected with NL4-3 in the presence of no drugs, efavirenz, AMD3100, or caspase inhibitors (50 μM or 100 μM), as indicated in FIG. 16C. After 3 days, the supernatants were assayed for the cytosolic enzyme lactate dehydrogenase (LDH) and the LDH released by dying cells was quantified.

HIV-1 = test: microbe, parasite or virus in culture
Procedure: (A and C) Concentrations of T20 that block viral infection. […] One hour before incubation with the virus, cells were pretreated with T20 or left untreated. At 12 hours, cells were washed extensively and cultured under the same conditions. On day 9, the viral concentration was determined using a p24gag FLAQ assay. The amount of p24gag accumulated in the absence of drugs by each viral clone (A) or by SKY (C) was defined as 100%. (B and D) Effect of T20 on indirect killing. CFSE-labeled cells were co-cultured with cells infected with the indicated viral clones in the presence of 5 μM AZT and the indicated concentrations of T20. After 6 days, indirect killing in the mixed cultures was assessed. The number of viable CFSE-positive CD4 T-cells co-cultured with uninfected cells in the presence of AZT was defined as 100% (not shown). To allow successful initial infection the GIA-SKY mutants were pseudotyped with the VSV-G envelope. NL4-3, WT lab-adapted virus; WEAU 16-8, primary virus; SIM, T20-resistant virus; GIA-SKY, T20-dependent virus; GIA and SKY, single-domain mutant viruses. Representative data from three independent experiments with different donors are shown. See also FIG. 5, below.
HLACs were infected with viruses derived from the indicated HIV proviral clones in the presence of the indicated concentrations of AZT or in the absence of drugs. Six days after infection the amount of p24^gag in the medium was determined by FLAQ assay. The amount of p24^gag in the medium after infection wash (day 0) was defined as 0%. […] Viral incorporation of endogenous A3G was measured by immunoblot analysis of purified NL4-3 and Δvif NL4-3 virions harvested from 1 ml of supernatant from infected HLACs. Doses reflect 1:10 dilutions. […] Resting or activated CFSE-labeled cells were co-cultured with cells infected with WT or Δvif NL4-3 in the presence or absence of the following drugs, AZT (5 μM), AMD3100 (250 nM), the NNRTIs Efavirenz (100 nM), and Nevirapine (1 μM), or the integration inhibitors Raltegravir (30 μM) and 118-D-24 (60 μM). Data are representative of four independent experiments performed with cells from four different donors. (E) A method to assess indirect killing in HLAC with non-infectious HIV-1 clones. Fresh human tonsil is processed into HLAC and cells are cultured in suspension. At the same time 293T-cells are transfected with 1 μg HIV-1 DNA in a 24-well plate. After 12 hours, 293T-cells are washed and overlayed with 3×10^6 HLAC cells in RPMI in the presence of the indicated drugs. Virus-producing 293T-cells directly interact with target overlaying HLAC cells. After 24 hours, the HLAC suspensions are collected from wells and analyzed by flow cytometry. […] HLAC were cultured with the indicated drugs 3 hours before co-culture with 293T-cells. Percentages are normalized to the number of viable CD4 T-cells in HLAC overlaying non-transfected 293T-cells in the presence of AZT, as depicted by (*). Error bars represent standard error of the mean of three experiments performed using cells from three different HLAC donors.

caspase-1 and caspase-3 = test: Intracellular caspase activity after spinoculation with NL4-3; assay type: cell-based, human; conditions: AZT 5 μM, efavirenz 100 nM, T20 10 μg/ml, 3 days
Procedure: HLACs were subjected to intracellular analysis of caspases activity and cytokine expression 3 days after spinoculation with NL4-3. Intracellular caspase-1, -3, -6, -8, and -9 activities were analyzed with a CaspaLux1 E1D2, Phiphilux G1D2, CaspaLux6 J1D2, CaspaLux 8 L1D2, and CaspaLux 9 M1D2 kits (OncoImmunin), respectively, at 37° C. for 15 min, followed by staining with PE anti-CD4, and APC anti-CD8, at 4° C. for 15 min. For annexin V analysis, cells were stained with APC-conjugated annexin V together with PE anti-CD4, FITC anti-CD8, and with 0.5 μg/ml ethidium monoazide (E-1374, Molecular Probes) for 15 min at 4° C. For intracellular cytokine capture, cells were incubated with 2 μM protein transport inhibitor GolgiStop (BD Biosciences) containing monensin, and 5 μg/ml Brefeldin A (EMD biosciences) at 37° C. for 6 hours before analysis. Cells were then stained with anti-CD4 and anti-CD8 antibodies at 4° C. for 15 min, and fixed in 1% paraformaldehyde at 4° C. for 1 hour. Fixed cells were washed extensively with PBS and were stained in 0.2% saponin buffer (PBS+2% FBS+0.2% saponin) containing PE anti-human TNFα (R&D Systems), FITC anti-human IFNβ (PBL Biomedical laboratories), PE anti-human IL-1β (BD Biosciences), or APC anti-phosphorylated p53 at serine 37 (pS37) at 4° C. for 1 hour.

HLAC CD4 T-cells = test: Spinoculation of HLAC with HIV-1, CD4 T-cell depletion; assay type: cell-based, human; conditions: ≧2 μg p24gag/200 μl, within 12 hours
Procedure: (A) The spinoculation procedure. (B) Flow cytometry of viable CD4 versus CD8-T-cells in HLAC three days after spinoculation in the presence of the indicated drugs. Data represent live-gated cells, based on the forward-scatter versus side-scatter profile of the complete culture. Of note, apoptotic cells were included in the analysis of caspases activity and cytokine expression (FIG. 10E, F). Drugs concentrations: AZT 5 μM; Efavirenz 100 nM; AMD3100 250 nM; T20 10 μg/ml. The data are representative results of six independent experiments with six different donors. […] (C) Highly permissive SupT1 CD4 T leukemic cells were infected with NL4-3 and cultivated for 3 days to allow substantial infection but not syncytia formation. […] After 2.5 days of additional culture, the extent of syncytia formation in each sample was evaluated by light microscopy. […] Results are representative of three independent experiments.
Fresh HLAC cells are cultured overnight in a V-bottom 96-well plate (1×10^6 cells/well) in the presence of drugs and then chilled on ice. […] The cold temperature allows virion attachment but prevents virion fusion. HIV-coated cells are then tightly packed into a pellet by high-speed centrifugation (1200 g) for 2 hours at 4° C. This step presses the virus between cell membranes, exerting a uniform and consistent attachment. […]

c1cc(CN2CCCNCCNCCCNCC2)ccc1CN1CCCNCCNCCCNCC1 [AMD3100]
LDH release from HIV-1 infected cells [1]: LDH was not released

Cc1cn([C@H]2C[C@H](N=[N+]=[N-])[C@@H](CO)O2)c(=O)[nH]c1=O [AZT]
IC50 (HIV-1; Human immunodeficiency virus 1, in Homo sapiens, read-out: concentration achieving half maximal inhibitory effect): 500 nM | concentration that blocks viral replication (HIV-1; NL4-3-infected and AZT-sensitive clones): 0.5 µM

O=C1Nc2ccc(Cl)cc2[C@@](C#CC2CC2)(C(F)(F)F)O1 [efavirenz]
activation of caspase-1 and caspase-3 in abortively infected CD4 T-cells (caspase-1 and caspase-3): prevented activation of these caspases | LDH release from HIV-1 infected cells [1]: LDH was not released | CD4 T-cell killing after spinoculation with high doses of HIV-1 (HLAC CD4 T-cells): is not prevented

enfuvirtide
activation of caspase-1 and caspase-3 in abortively infected CD4 T-cells (caspase-1 and caspase-3): prevented activation of these caspases | CD4 T-cell killing after spinoculation with high doses of HIV-1 (HLAC CD4 T-cells): prevented CD4 T-cell killing | concentration at which inhibition of infection begins (HIV-1): > 2 µg/mL | concentration giving complete inhibition of infection (HIV-1): 0.1 µg/mL | concentration required for complete inhibition of infection (HIV-1): 10 µg/mL | inhibition of infection (HIV-1): did not inhibit infection | replication of T20-dependent mutant GIA-SKY (HIV-1): readily replicated
